Assay [1] deals with Tobacco Budworm. As to the kind of experiment: Tobacco budworm LC50 and FD50 (instar not stated). The class given is in vivo, Heliothis virescens (Fabricus). From the text: (§1) Test formulations and procedures used for evaluation are as follows:
FD50 = The concentration of insecticide required to reduce insect

The test system of assay [2] is Southern Armyworm. Description: Southern armyworm test, third-instar larvae on treated Sieva lima bean leaves. The class given is in vivo, Spodoptera eridania (Cramer). The gist of the method: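 Sieva lima bean plants, primary leaves expanded to 1.91 cm, were dipped with agitation for three seconds in test material dissolved in 65% acetone, with further dilutions in acetone, then air-dried in a hood. A treated leaf was placed in a 9 cm petri dish on moist filter paper with 10 third-instar Spodoptera eridania larvae about 1 cm long. Dishes were covered and kept at 80° F. and 50% r.h. Mortality and feeding were assessed after two days.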

Assay [3] has as its system Tobacco Budworm 1st Instar. Description: Tobacco budworm initial test, treated eggs / newly hatched (1st instar) larvae on treated cotton leaves. The class given is in vivo, Heliothis virescens (Fabricus). How it is done:
as §1
A. 100 mg of the test material is weighed, placed in a funnel over a 113 g narrow-mouth bottle, rinsed into the bottle with a 35 mL scoop of acetone, followed by a 35 mL scoop of water and another 35 mL scoop of acetone to yield 1000 ppm in 65% acetone. If the material is not soluble, it is broken up with a glass rod and used as a suspension.
B. This stock solution ("A") is used to make 300 ppm solutions or suspensions by pipetting 30 mL of "A" into a bottle containing 70 mL of 50% acetone to yield 300 ppm. Further dilutions in 50% acetone are made as required.
C. Tests requiring 10 ppm acetone solutions: 1 mL of "A" is pipetted into 99 mL of acetone to yield 10 ppm. Additional dilutions are made using 50% acetone as required.
Tobacco Budworm--Heliothis virescens (Fabricus)
A cotton plant with two true leaves expanded is dipped for three seconds with agitation in 300 ppm solution. A 1.27 to 1.91 cm square of cheesecloth with about 50 to 100 budworm eggs 0-24 hours old is also dipped in the test solution and placed on a leaf of the cotton plant, all being placed in the hood to dry. The leaf with the treated budworm eggs is removed from the plant and placed in a 226 g Dixie cup with a wet 5 cm piece of dental wick and covered with a lid. The other leaf is placed in a similar cup with a wick and a piece of cheesecloth infested with 50-100 newly hatched larvae is added before covering the cup with a lid. After three days at 80° F., 50% relative humidity, observations of egg hatch are made, as well as kill of newly hatched larvae, any inhibition of feeding, or interference of any sort with normal development.

Assay [4] has as its system Tobacco Budworm 3rd Instar. As to the kind of experiment: Tobacco budworm secondary test, third-instar larvae on treated cotton cotyledons. The class given is in vivo, Heliothis virescens (Fabricus).
Description: Three cotton plants with just expanded cotyledons are dipped in 1000 ppm solution and placed in the hood to dry. When dry, each cotyledon is cut in half, and 10 are each placed in a 28 g plastic medicine cup containing a 1.25 cm dental wick saturated with water, and one third-instar budworm larva is added. The cup is capped and held for three days at 80° F., 50% relative humidity, after which mortality counts are made.

Molecules are shown by their SMILES. ≈ marks a conversion by molar mass, not a printed value. Read-outs that look alike come from different tables or passages of the source.

As a reminder, the LC50 is the concentration lethal to half of the exposed cells or organisms. `CN(C)C(=O)N(N=Cc1ccc(C(F)(F)F)cc1)C(=N)NN=Cc1ccc(C(F)(F)F)cc1` [CF3 / CF3 / CH3 / CH3]: the LC50 in assay [1] (Heliothis virescens; read-out: LC50 Tobacco Budworm) worked out at 96 µg/mL (≈ 203 µM); in assay [2] (Spodoptera eridania; read-out: LC50 Southern Armyworm), 15 µg/mL (≈ 31.8 µM). The “Mortality Rating Southern Armyworm” value was 8 (86-99%) in assay [2] (10 ppm, third-instar larvae); 9 (100%) in assay [2] (100 ppm, third-instar larvae); 9 (100%) in assay [2] (1000 ppm, third-instar larvae). In addition, the “Mortality Rating Tobacco Budworm 1st Instar” value is 0 (No effect) in assay [3] (10 ppm), 6 (66-75%) in assay [3] (100 ppm) and 8 (86-99%) in assay [3] (300 ppm). Moreover, the “Mortality Rating Tobacco Budworm 3rd Instar” value in assay [4] (10 ppm) is reported as 0 (No effect); in assay [4] (100 ppm), 9 (100%); in assay [4] (1000 ppm), 9 (100%).
In the case of `CN(C)C(=O)N(N=Cc1ccc(OC(F)(F)C(F)F)cc1)C(=N)NN=Cc1ccc(OC(F)(F)C(F)F)cc1` [HCF2 CF2 O / HCF2 CF2 O / CH3 / CH3, 4,4-dimethyl-2-{[p-(1,1,2,2-tetrafluoroethoxy)benzylidene]amino}-allophanimidic acid [p-(1,1,2,2-tetrafluoroethoxy)benzylidene]hydrazide], the median lethal concentration (LC50) amounted to 491 µg/mL (≈ 864 µM) in assay [1] (Heliothis virescens, read-out: LC50 Tobacco Budworm) and 7 µg/mL (≈ 12.3 µM) in assay [2] (Spodoptera eridania, read-out: LC50 Southern Armyworm). Also, the “Mortality Rating Southern Armyworm” value was 0 (No effect) in assay [2] (10 ppm, third-instar larvae); 9 (100%) in assay [2] (100 ppm, third-instar larvae); 9 (100%) in assay [2] (1000 ppm, third-instar larvae). Further, the “Mortality Rating Tobacco Budworm 1st Instar” value in assay [3] (100 ppm) is given as 5 (56-65%); in assay [3] (300 ppm) it was 9 (100%). Besides, the “Mortality Rating Tobacco Budworm 3rd Instar” value in assay [4] (100 ppm) was 2 (26-35%); in assay [4] (1000 ppm), 8 (86-99%).

The values are drawn from patent US4575560A, “Insecticidal diaminoguanidine hydrazone compounds” (American Cyanamid Company, priority 1985, dated 1986).
